# Assay results taken from PubChem BioAssay (NCI).
#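 Step 1: Grow cells in 96-well plates. Step 2: Expose to compound for 48 hours at 5 concentrations. Step 3: Interpolate endpoints linearly; if unreached, use highest concentration. GI50 = concentration required for 50% inhibition of growth. Definition used: TGI = concentration required for complete inhibition of growth.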
# Tests used:
# Experiment in all cases: NCI tumour cell line growth inhibition, 48 h
# 786-0 renal = system: 786-0 renal
# A498 renal = system: A498 renal
# A549 NSCLC = system: A549 NSCLC
# ACHN renal = system: ACHN renal
# BT-549 breast = system: BT-549 breast
# CAKI-1 renal = system: CAKI-1 renal
# CCRF-CEM leukemia = system: CCRF-CEM leukemia
# COLO 205 colon = system: COLO 205 colon
# DU-145 prostate = system: DU-145 prostate
# EKVX NSCLC = system: EKVX NSCLC
# HCC-2998 colon = system: HCC-2998 colon
# HCT-116 colon = system: HCT-116 colon
# HCT-15 colon = system: HCT-15 colon
# HL-60(TB) leukemia = system: HL-60(TB) leukemia
# HOP-62 NSCLC = system: HOP-62 NSCLC
# HOP-92 NSCLC = system: HOP-92 NSCLC
# HS 578T breast = system: HS 578T breast
# HT29 colon = system: HT29 colon
# IGROV1 ovarian = system: IGROV1 ovarian
# K-562 leukemia = system: K-562 leukemia
# KM12 colon = system: KM12 colon
# LOX IMVI melanoma = system: LOX IMVI melanoma
# M14 melanoma = system: M14 melanoma
# MALME-3M melanoma = system: MALME-3M melanoma
# MCF7 breast = system: MCF7 breast
# MDA-MB-231 breast = system: MDA-MB-231 breast
# MDA-MB-435 = system: MDA-MB-435
# MOLT-4 leukemia = system: MOLT-4 leukemia
# NCI-H226 lung = system: NCI-H226 lung
# NCI-H23 lung = system: NCI-H23 lung
# NCI-H460 lung = system: NCI-H460 lung
# NCI-H522 lung = system: NCI-H522 lung
# NCI/ADR-RES ovarian = system: NCI/ADR-RES ovarian
# OVCAR-3 ovarian = system: OVCAR-3 ovarian
# OVCAR-4 ovarian = system: OVCAR-4 ovarian
# OVCAR-5 ovarian = system: OVCAR-5 ovarian
# OVCAR-8 ovarian = system: OVCAR-8 ovarian
# PC-3 prostate = system: PC-3 prostate
# RPMI-8226 leukemia = system: RPMI-8226 leukemia
# RXF 393 renal = system: RXF 393 renal
# SF-268 CNS = system: SF-268 CNS
# SF-295 CNS = system: SF-295 CNS
# SF-539 CNS = system: SF-539 CNS
# SK-MEL-2 melanoma = system: SK-MEL-2 melanoma
# SK-MEL-28 melanoma = system: SK-MEL-28 melanoma
# SK-MEL-5 melanoma = system: SK-MEL-5 melanoma
# SK-OV-3 ovarian = system: SK-OV-3 ovarian
# SN12C renal = system: SN12C renal
# SNB-19 CNS = system: SNB-19 CNS
# SW-620 colon = system: SW-620 colon
# T-47D breast = system: T-47D breast
# TK-10 renal = system: TK-10 renal
# U251 CNS = system: U251 CNS
# UACC-257 melanoma = system: UACC-257 melanoma
# UACC-62 melanoma = system: UACC-62 melanoma
# UO-31 renal = system: UO-31 renal
structure (smiles),measurement,setting,value
CCOc1cc2ncc(C#N)c(Nc3ccc(F)c(Cl)c3)c2cc1NC(=O)CC1CCSS1 (configuration not stated),GI50,786-0 renal,1.84 µM
same,TGI,786-0 renal,12.9 µM
same,GI50,A498 renal,3.05 µM
same,TGI,A498 renal,11.4 µM
same,GI50,A549 NSCLC,0.616 µM
same,TGI,A549 NSCLC,1.16 µM
same,GI50,ACHN renal,0.429 µM
same,TGI,ACHN renal,1.15 µM
same,GI50,BT-549 breast,1.5 µM
same,TGI,BT-549 breast,7.46 µM
same,GI50,CAKI-1 renal,0.979 µM
same,TGI,CAKI-1 renal,4.59 µM
same,GI50,CCRF-CEM leukemia,0.792 µM
same,TGI,CCRF-CEM leukemia,2.06 µM
same,GI50,COLO 205 colon,0.982 µM
same,TGI,COLO 205 colon,3.39 µM
same,GI50,DU-145 prostate,0.58 µM
same,TGI,DU-145 prostate,1.28 µM
same,GI50,EKVX NSCLC,0.476 µM
same,TGI,EKVX NSCLC,1.93 µM
same,GI50,HCC-2998 colon,0.569 µM
same,TGI,HCC-2998 colon,1.1 µM
same,GI50,HCT-116 colon,0.63 µM
same,TGI,HCT-116 colon,1.27 µM
same,GI50,HCT-15 colon,0.649 µM
same,TGI,HCT-15 colon,1.7 µM
same,GI50,HL-60(TB) leukemia,0.93 µM
same,TGI,HL-60(TB) leukemia,4 µM
same,GI50,HOP-62 NSCLC,0.533 µM
same,TGI,HOP-62 NSCLC,1.16 µM
same,GI50,HOP-92 NSCLC,3.24 µM
same,TGI,HOP-92 NSCLC,13.7 µM
same,GI50,HS 578T breast,1.39 µM
same,TGI,HS 578T breast,11.7 µM
same,GI50,HT29 colon,0.603 µM
same,TGI,HT29 colon,1.2 µM
same,GI50,IGROV1 ovarian,0.392 µM
same,TGI,IGROV1 ovarian,1.63 µM
same,GI50,K-562 leukemia,0.881 µM
same,TGI,K-562 leukemia,2.29 µM
same,GI50,KM12 colon,0.563 µM
same,TGI,KM12 colon,1.13 µM
same,GI50,LOX IMVI melanoma,0.579 µM
same,TGI,LOX IMVI melanoma,1.17 µM
same,GI50,M14 melanoma,0.572 µM
same,TGI,M14 melanoma,1.33 µM
same,GI50,MALME-3M melanoma,1.64 µM
same,TGI,MALME-3M melanoma,6.41 µM
same,GI50,MCF7 breast,0.694 µM
same,TGI,MCF7 breast,1.9 µM
same,GI50,MDA-MB-231 breast,0.833 µM
same,TGI,MDA-MB-231 breast,2 µM
same,GI50,MDA-MB-435,0.597 µM
same,TGI,MDA-MB-435,1.23 µM
same,GI50,MOLT-4 leukemia,0.748 µM
same,TGI,MOLT-4 leukemia,1.89 µM
same,GI50,NCI-H226 lung,2.11 µM
same,TGI,NCI-H226 lung,7.4 µM
same,GI50,NCI-H23 lung,1.12 µM
same,TGI,NCI-H23 lung,4.55 µM
same,GI50,NCI-H460 lung,0.676 µM
same,TGI,NCI-H460 lung,1.41 µM
same,GI50,NCI-H522 lung,0.786 µM
same,TGI,NCI-H522 lung,4.7 µM
same,GI50,NCI/ADR-RES ovarian,0.751 µM
same,TGI,NCI/ADR-RES ovarian,2.04 µM
same,GI50,OVCAR-3 ovarian,0.717 µM
same,TGI,OVCAR-3 ovarian,2.08 µM
same,GI50,OVCAR-4 ovarian,0.663 µM
same,TGI,OVCAR-4 ovarian,2.35 µM
same,GI50,OVCAR-5 ovarian,2.1 µM
same,TGI,OVCAR-5 ovarian,13.5 µM
same,GI50,OVCAR-8 ovarian,0.809 µM
same,TGI,OVCAR-8 ovarian,1.92 µM
same,GI50,PC-3 prostate,0.629 µM
same,TGI,PC-3 prostate,1.21 µM
same,GI50,RPMI-8226 leukemia,1.64 µM
same,TGI,RPMI-8226 leukemia,33.3 µM
same,GI50,RXF 393 renal,1.13 µM
same,TGI,RXF 393 renal,3.97 µM
same,GI50,SF-268 CNS,0.74 µM
same,TGI,SF-268 CNS,2.23 µM
same,GI50,SF-295 CNS,1.65 µM
same,TGI,SF-295 CNS,6.67 µM
same,GI50,SF-539 CNS,5 µM
same,TGI,SF-539 CNS,17.4 µM
same,GI50,SK-MEL-2 melanoma,0.697 µM
same,TGI,SK-MEL-2 melanoma,2 µM
same,GI50,SK-MEL-28 melanoma,0.659 µM
same,TGI,SK-MEL-28 melanoma,1.53 µM
same,GI50,SK-MEL-5 melanoma,3.24 µM
same,TGI,SK-MEL-5 melanoma,7.23 µM
same,GI50,SK-OV-3 ovarian,0.509 µM
same,TGI,SK-OV-3 ovarian,0.99 µM
same,GI50,SN12C renal,0.88 µM
same,TGI,SN12C renal,2.5 µM
same,GI50,SNB-19 CNS,1.98 µM
same,TGI,SNB-19 CNS,12.3 µM
same,GI50,SW-620 colon,1.04 µM
same,TGI,SW-620 colon,3.57 µM
same,GI50,T-47D breast,1.38 µM
same,TGI,T-47D breast,6.92 µM
same,GI50,TK-10 renal,0.556 µM
same,TGI,TK-10 renal,1.48 µM
same,GI50,U251 CNS,1.1 µM
same,TGI,U251 CNS,3.46 µM
same,GI50,UACC-257 melanoma,1.96 µM
same,TGI,UACC-257 melanoma,6.92 µM
same,GI50,UACC-62 melanoma,1.97 µM
same,TGI,UACC-62 melanoma,7.28 µM
same,GI50,UO-31 renal,0.395 µM
same,TGI,UO-31 renal,0.955 µM
